Results published in PubChem BioAssay (NCI).
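Dose response: 5 concentrations. Exposure: 48 h. Format: 96-well plates. Endpoint: linear interpolation; highest concentration if not reached. GI50 = concentration required for 50% inhibition of growth. TGI is the concentration that stops growth completely.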

Experiments:
Test in all cases: NCI anticancer screen, dose series, 48 h
IGROV1 ovarian = test system: IGROV1 ovarian
HCC-2998 colon = test system: HCC-2998 colon
SK-MEL-2 melanoma = test system: SK-MEL-2 melanoma
UO-31 renal = test system: UO-31 renal
OVCAR-5 ovarian = test system: OVCAR-5 ovarian
BT-549 breast = test system: BT-549 breast
SF-268 CNS = test system: SF-268 CNS
MDA-MB-231 breast = test system: MDA-MB-231 breast
MCF7 breast = test system: MCF7 breast
HOP-62 NSCLC = test system: HOP-62 NSCLC
HT29 colon = test system: HT29 colon
SNB-75 CNS = test system: SNB-75 CNS
LOX IMVI melanoma = test system: LOX IMVI melanoma
SK-OV-3 ovarian = test system: SK-OV-3 ovarian
SW-620 colon = test system: SW-620 colon
U251 CNS = test system: U251 CNS
RXF 393 renal = test system: RXF 393 renal
786-0 renal = test system: 786-0 renal
HS 578T breast = test system: HS 578T breast
HOP-92 NSCLC = test system: HOP-92 NSCLC
NCI-H460 lung = test system: NCI-H460 lung
TK-10 renal = test system: TK-10 renal
SF-295 CNS = test system: SF-295 CNS
ACHN renal = test system: ACHN renal
PC-3 prostate = test system: PC-3 prostate
A498 renal = test system: A498 renal
NCI-H226 lung = test system: NCI-H226 lung
NCI/ADR-RES ovarian = test system: NCI/ADR-RES ovarian
DU-145 prostate = test system: DU-145 prostate
K-562 leukemia = test system: K-562 leukemia
SNB-19 CNS = test system: SNB-19 CNS
OVCAR-8 ovarian = test system: OVCAR-8 ovarian
SR leukemia = test system: SR leukemia
CAKI-1 renal = test system: CAKI-1 renal
COLO 205 colon = test system: COLO 205 colon
HCT-15 colon = test system: HCT-15 colon
SF-539 CNS = test system: SF-539 CNS
HCT-116 colon = test system: HCT-116 colon
OVCAR-3 ovarian = test system: OVCAR-3 ovarian
T-47D breast = test system: T-47D breast
OVCAR-4 ovarian = test system: OVCAR-4 ovarian
NCI-H23 lung = test system: NCI-H23 lung

Q: How did the GI50 (IGROV1 ovarian) turn out when `Brc1cccc(/C=N/Nc2nc(N/N=C/c3cccc(Br)c3)nc(N3CCOCC3)n2)c1` was run?
A: Its GI50 is 2.92 µM.

Q: What about the TGI (IGROV1 ovarian) of the same molecule?
A: The TGI was greater than 100 µM.

Q: What about the GI50 (HCC-2998 colon) of the same molecule?
A: Its GI50 is 3.06 µM.

Q: And the TGI (HCC-2998 colon)?
A: Its TGI is greater than 100 µM.

Q: What about the GI50 (SK-MEL-2 melanoma) of the same molecule?
A: The GI50 was 2.43 µM.

Q: What about the TGI (SK-MEL-2 melanoma) of the same molecule?
A: Its TGI is 6.47 µM.

Q: And the GI50 (UO-31 renal)?
A: Its GI50 is 1.01 µM.

Q: What about the TGI (UO-31 renal) of the same molecule?
A: The TGI was greater than 100 µM.

Q: What about the GI50 (OVCAR-5 ovarian) of the same molecule?
A: The GI50 was greater than 100 µM.

Q: And the TGI (OVCAR-5 ovarian)?
A: Its TGI is greater than 100 µM.

Q: And the GI50 (BT-549 breast)?
A: Its GI50 is 3.54 µM.

Q: And the TGI (BT-549 breast)?
A: The TGI was 66.9 µM.

Q: What about the GI50 (SF-268 CNS) of the same molecule?
A: Its GI50 is 8.4 µM.

Q: And the TGI (SF-268 CNS)?
A: Its TGI is greater than 100 µM.

Q: What about the GI50 (MDA-MB-231 breast) of the same molecule?
A: The GI50 was 3.97 µM.

Q: And the TGI (MDA-MB-231 breast)?
A: Its TGI is greater than 100 µM.

Q: What about the GI50 (MCF7 breast) of the same molecule?
A: Its GI50 is 2.64 µM.

Q: And the TGI (MCF7 breast)?
A: The TGI was greater than 100 µM.

Q: And the GI50 (HOP-62 NSCLC)?
A: The GI50 was 8.07 µM.

Q: What about the TGI (HOP-62 NSCLC) of the same molecule?
A: Its TGI is 55.6 µM.

Q: What about the GI50 (HT29 colon) of the same molecule?
A: The GI50 was 0.609 µM.

Q: What about the TGI (HT29 colon) of the same molecule?
A: Its TGI is greater than 100 µM.

Q: And the GI50 (SNB-75 CNS)?
A: Its GI50 is 4.54 µM.

Q: What about the TGI (SNB-75 CNS) of the same molecule?
A: Its TGI is 29.6 µM.

Q: And the GI50 (LOX IMVI melanoma)?
A: Its GI50 is 2.66 µM.

Q: What about the TGI (LOX IMVI melanoma) of the same molecule?
A: The TGI was greater than 100 µM.

Q: What about the GI50 (SK-OV-3 ovarian) of the same molecule?
A: The GI50 was 14.7 µM.

Q: What about the TGI (SK-OV-3 ovarian) of the same molecule?
A: Its TGI is 64 µM.

Q: And the GI50 (SW-620 colon)?
A: The GI50 was 0.825 µM.

Q: What about the TGI (SW-620 colon) of the same molecule?
A: The TGI was greater than 100 µM.

Q: What about the GI50 (U251 CNS) of the same molecule?
A: Its GI50 is 4.22 µM.

Q: What about the TGI (U251 CNS) of the same molecule?
A: Its TGI is greater than 100 µM.

Q: And the GI50 (RXF 393 renal)?
A: Its GI50 is 0.159 µM.

Q: What about the TGI (RXF 393 renal) of the same molecule?
A: Its TGI is 1.95 µM.

Q: And the GI50 (786-0 renal)?
A: Its GI50 is 0.529 µM.

Q: What about the TGI (786-0 renal) of the same molecule?
A: Its TGI is 4.78 µM.

Q: And the GI50 (HS 578T breast)?
A: The GI50 was 3.6 µM.

Q: And the TGI (HS 578T breast)?
A: The TGI was greater than 100 µM.

Q: What about the GI50 (HOP-92 NSCLC) of the same molecule?
A: Its GI50 is 1.24 µM.

Q: And the TGI (HOP-92 NSCLC)?
A: Its TGI is 8.92 µM.

Q: What about the GI50 (NCI-H460 lung) of the same molecule?
A: The GI50 was 3.43 µM.

Q: And the TGI (NCI-H460 lung)?
A: The TGI was greater than 100 µM.

Q: And the GI50 (TK-10 renal)?
A: Its GI50 is 8.75 µM.

Q: What about the TGI (TK-10 renal) of the same molecule?
A: Its TGI is greater than 100 µM.

Q: And the GI50 (SF-295 CNS)?
A: Its GI50 is 4.94 µM.

Q: What about the TGI (SF-295 CNS) of the same molecule?
A: The TGI was greater than 100 µM.

Q: And the GI50 (ACHN renal)?
A: The GI50 was 2.21 µM.

Q: What about the TGI (ACHN renal) of the same molecule?
A: Its TGI is greater than 100 µM.

Q: And the GI50 (PC-3 prostate)?
A: Its GI50 is 2.9 µM.

Q: What about the TGI (PC-3 prostate) of the same molecule?
A: The TGI was greater than 100 µM.

Q: What about the GI50 (A498 renal) of the same molecule?
A: The GI50 was 0.137 µM.

Q: And the TGI (A498 renal)?
A: Its TGI is 4.26 µM.

Q: What about the GI50 (NCI-H226 lung) of the same molecule?
A: The GI50 was 2.46 µM.

Q: What about the TGI (NCI-H226 lung) of the same molecule?
A: The TGI was 8.51 µM.

Q: What about the GI50 (NCI/ADR-RES ovarian) of the same molecule?
A: The GI50 was 3.25 µM.

Q: What about the TGI (NCI/ADR-RES ovarian) of the same molecule?
A: Its TGI is greater than 100 µM.

Q: And the GI50 (DU-145 prostate)?
A: The GI50 was 1.31 µM.

Q: And the TGI (DU-145 prostate)?
A: The TGI was greater than 100 µM.

Q: And the GI50 (K-562 leukemia)?
A: Its GI50 is 0.336 µM.

Q: And the TGI (K-562 leukemia)?
A: The TGI was greater than 100 µM.

Q: What about the GI50 (SNB-19 CNS) of the same molecule?
A: Its GI50 is 12.9 µM.

Q: What about the TGI (SNB-19 CNS) of the same molecule?
A: Its TGI is 58.7 µM.

Q: And the GI50 (OVCAR-8 ovarian)?
A: The GI50 was 5 µM.

Q: And the TGI (OVCAR-8 ovarian)?
A: The TGI was greater than 100 µM.

Q: What about the GI50 (SR leukemia) of the same molecule?
A: Its GI50 is 0.16 µM.

Q: And the TGI (SR leukemia)?
A: The TGI was 2.29 µM.

Q: And the GI50 (CAKI-1 renal)?
A: The GI50 was 3.52 µM.

Q: What about the TGI (CAKI-1 renal) of the same molecule?
A: Its TGI is greater than 100 µM.

Q: What about the GI50 (COLO 205 colon) of the same molecule?
A: The GI50 was 1.24 µM.

Q: What about the TGI (COLO 205 colon) of the same molecule?
A: The TGI was greater than 100 µM.

Q: What about the GI50 (HCT-15 colon) of the same molecule?
A: Its GI50 is 0.423 µM.

Q: And the TGI (HCT-15 colon)?
A: Its TGI is greater than 100 µM.

Q: And the GI50 (SF-539 CNS)?
A: Its GI50 is 3.83 µM.

Q: And the TGI (SF-539 CNS)?
A: Its TGI is greater than 100 µM.

Q: And the GI50 (HCT-116 colon)?
A: The GI50 was 0.78 µM.

Q: What about the TGI (HCT-116 colon) of the same molecule?
A: The TGI was greater than 100 µM.

Q: What about the GI50 (OVCAR-3 ovarian) of the same molecule?
A: The GI50 was 3.81 µM.

Q: What about the TGI (OVCAR-3 ovarian) of the same molecule?
A: Its TGI is greater than 100 µM.

Q: What about the GI50 (T-47D breast) of the same molecule?
A: Its GI50 is 3.94 µM.

Q: What about the TGI (T-47D breast) of the same molecule?
A: The TGI was greater than 100 µM.

Q: What about the GI50 (OVCAR-4 ovarian) of the same molecule?
A: The GI50 was 4.89 µM.

Q: And the TGI (OVCAR-4 ovarian)?
A: Its TGI is greater than 100 µM.

Q: And the GI50 (NCI-H23 lung)?
A: Its GI50 is 4.5 µM.

Q: What about the TGI (NCI-H23 lung) of the same molecule?
A: Its TGI is greater than 100 µM.
